Results published in patent US6218398A, “Nocathiacin antibiotics” (Bristol-Myers Squibb Company, priority 1999, dated 2001).
≈ marks a conversion by molar mass, not a printed value.

Tests used:
[1] = tested on: Enterococcus faecium A24885; test: MIC by conventional serial broth dilution assay; assay type: cell-based
[2] = tested on: Moraxella catarrhalis/β-lactamase positive A25409; test: MIC by conventional serial broth dilution assay; assay type: cell-based
Escherichia coli A22292 = test: MIC by conventional serial broth dilution assay; assay type: cell-based
Salmonella/WT A27207 = test: MIC by conventional serial broth dilution assay; assay type: cell-based
[3] = tested on: Salmonella enteritidis A9531; test: MIC by conventional serial broth dilution assay; assay type: cell-based; conditions: Salmonella enterica
[4] = tested on: Streptococcus pyogenes A9604; test: MIC by conventional serial broth dilution assay; assay type: cell-based
Escherichia coli A15119 = test: MIC by conventional serial broth dilution assay; assay type: cell-based
[5] = tested on: Enterococcus faecalis A20688; test: MIC by conventional serial broth dilution assay; assay type: cell-based
[6] = tested on: Haemophilus influenzae/β-lactamase negative A20183; test: MIC by conventional serial broth dilution assay; assay type: cell-based
[7] = tested on: Enterococcus avium A27456; test: MIC by conventional serial broth dilution assay; assay type: cell-based
[8] = tested on: Enterococcus faecium/thiostrepton resistant (10 ug/ml) SC15829; test: MIC by conventional serial broth dilution assay; assay type: cell-based
Micrococcus luteus A9852 = test: MIC by conventional serial broth dilution assay; assay type: cell-based
[9] = tested on: Staphylococcus aureus A15090; test: systemic Staph. aureus infection model in mice; assay type: in vivo, female ICR mice infected with Staphylococcus aureus; conditions: subcutaneous
Method: Nocathiacin I was evaluated for antibiotic activity in vivo, in a systemic infection model using female ICR mice. The animals were infected IP with 6.5×10^6 CFU of an overnight culture of Staphylococcus aureus A15090 suspended in 7% mucin. Nocathiacin I was dissolved in a test formulation consisting of 10% DMSO, 5% Tween 80 and 85% water. The solution was administered subcutaneously at 100 mg/kg total dose (2×50 mg/kg doses at 1 and 4 hours post-infection). […] The PD50 of nocathiacin I was determined to be <6.25 mg/kg.

[10] = tested on: Staphylococcus aureus/hetero methicillin resistant A27218; test: MIC by conventional serial broth dilution assay; assay type: cell-based
[11] = tested on: Staphylococcus aureus/β-lactamase positive A15090; test: MIC by conventional serial broth dilution assay; assay type: cell-based
[12] = tested on: Streptococcus pneumoniae/penicillin resistant A28272; test: MIC by conventional serial broth dilution assay; assay type: cell-based
[13] = tested on: Staphylococcus aureus/QC/ATCC#29213 A24407; test: MIC by conventional serial broth dilution assay; assay type: cell-based; conditions: ATCC29213
[14] = tested on: Staphylococcus epidermidis A24548; test: MIC by conventional serial broth dilution assay; assay type: cell-based
[15] = tested on: Staphylococcus aureus/homo methicillin resistant A27223; test: MIC by conventional serial broth dilution assay; assay type: cell-based
Salmonella/RE A27208 = test: MIC by conventional serial broth dilution assay; assay type: cell-based
[16] = tested on: Enterococcus faecalis A27519; test: MIC by conventional serial broth dilution assay; assay type: cell-based
[17] = tested on: Haemophilus influenzae/β-lactamase negative A20191; test: MIC by conventional serial broth dilution assay; assay type: cell-based
[18] = tested on: Moraxella catarrhalis/β-lactamase positive A22344; test: MIC by conventional serial broth dilution assay; assay type: cell-based
Bacillus subtilis A9506A = test: MIC by conventional serial broth dilution assay; assay type: cell-based
[19] = tested on: Staphylococcus haemolyticus A27298; test: MIC by conventional serial broth dilution assay; assay type: cell-based
[20] = tested on: Escherichia coli/AcrA::Kan A28901; test: MIC by conventional serial broth dilution assay; assay type: cell-based
Gram-positive bacteria = test: in vitro activity against Gram-positive bacteria; assay type: cell-based; conditions: e.g. multiple drug resistant Enterococcus faecium
[21] = tested on: Streptococcus pneumoniae A9585; test: MIC by conventional serial broth dilution assay; assay type: cell-based
[22] = tested on: Streptococcus pneumoniae/penicillin intermediate A27881; test: MIC by conventional serial broth dilution assay; assay type: cell-based
[23] = tested on: Staphylococcus aureus A9537; test: MIC by conventional serial broth dilution assay; assay type: cell-based
[24] = tested on: Haemophilus influenzae/β-lactamase positive A21515; test: MIC by conventional serial broth dilution assay; assay type: cell-based

Compound: C=C(NC(=O)c1csc(-c2nc3c(cc2O)-c2nc(cs2)C(=O)NC(C(C)O)C(=O)NC(=C(C)OC)c2nc(cs2)C(=O)NC2c4nc(cs4)C(=O)NC(COC(=O)c4c5c6c(cccc6n4O)COC(=O)C(OC4CC(C)(O)C(N(C)C)C(C)O4)C2OC5)c2nc-3cs2)n1)C(N)=O (stereo not shown) [Nocathiacin I]
- MIC [1]: 0.015 µg/mL (≈ 0.0104 µM)
- MIC [2]: 0.06 µg/mL (≈ 0.0417 µM)
- MIC (Escherichia coli A22292): > 128 µg/mL
- MIC (Salmonella/WT A27207): > 128 µg/mL
- MIC [3]: > 128 µg/mL
- MIC [4]: 0.001 µg/mL (≈ 0.000696 µM)
- MIC (Escherichia coli A15119): > 128 µg/mL
- MIC ([5]; A20688): 0.03 µg/mL (≈ 0.0209 µM)
- MIC ([5]; A20688, + 50% calf serum): 0.25 µg/mL
- MIC [6]: > 128 µg/mL
- MIC [7]: 0.015 µg/mL (≈ 0.0104 µM)
- MIC [8]: 0.125 µg/mL (≈ 0.087 µM)
- MIC (Micrococcus luteus A9852): 0.003 µg/mL (≈ 0.00209 µM)
- ED50 ([9]; Staphylococcus aureus, A15090, sc, systemic infection model, female ICR mice, read-out: PD50): < 6.25 mg/kg
- signs of toxicity ([9]; 100 mg/kg total dose (2×50 mg/kg at 1 and 4 hours post-infection)): no signs of toxicity
- animals survived the duration of the experiment ([9]; 100 mg/kg total dose (2×50 mg/kg at 1 and 4 hours post-infection), IP infection 6.5×10^6 CFU): Nine out of nine
- MIC ([10]; + 50% calf serum): 0.007 µg/mL
- MIC ([10]; hetero methicillin resistant): 0.003 µg/mL (≈ 0.00209 µM)
- MIC ([11]; + 50% calf serum): 0.015 µg/mL
- MIC ([11]; β-lactamase positive): 0.007 µg/mL (≈ 0.00487 µM)
- MIC [12]: 0.001 µg/mL (≈ 0.000696 µM)
- MIC [13]: 0.007 µg/mL (≈ 0.00487 µM)
- MIC [14]: 0.003 µg/mL (≈ 0.00209 µM)
- MIC ([15]; + 50% calf serum): 0.001 µg/mL
- MIC ([15]; homo methicillin resistant): 0.003 µg/mL (≈ 0.00209 µM)
- MIC (Salmonella/RE A27208): > 128 µg/mL
- MIC [16]: 0.03 µg/mL (≈ 0.0209 µM)
- MIC [17]: > 128 µg/mL
- MIC [18]: 0.06 µg/mL (≈ 0.0417 µM)
- MIC (Bacillus subtilis A9506A): 0.001 µg/mL (≈ 0.000696 µM)
- MIC [19]: 0.03 µg/mL (≈ 0.0209 µM)
- MIC [20]: > 128 µg/mL
- inhibitory activity against Gram-positive bacteria (Gram-positive bacteria): inhibitory activity at the nanomolar level
- MIC [21]: 0.001 µg/mL (≈ 0.000696 µM)
- MIC [22]: 0.001 µg/mL (≈ 0.000696 µM)
- MIC [23]: 0.001 µg/mL (≈ 0.000696 µM)
- MIC [24]: > 128 µg/mL
